assay: Two-photon absorption cross-sectional area, Z scan method, Examples B; format: physicochemical; conditions: tetrahydrofuran solution, femtosecond laser, 780 nm to 960 nm (710 nm to 990 nm)
Protocol: Each of Compounds (1), (2), (57), (58), (59), (60), (3), (4), (61), (62), (25), (26), (63), (64), (65), (66), (45), (67), (68), (69), (70), (71), (72), (5), (9), (13), (19), (27), (31), (32), (34), (36), (39), (44), (53) and (55) was dissolved in tetrahydrofuran, and the resultant tetrahydrofuran solution was measured for its two-photon absorption cross-sectional area according to the below-described evaluation method therefor.
This measurement was performed under the following conditions:
Sample concentration: 10^−2 mol to 10^−5 mol (this range covering optimal concentrations of the samples (at which measurements are easily performed));
Light path length of cell: 10 mm (corresponding to the inner diameter of cuvette);
Light: variable femtosecond laser having a wavelength of 710 nm to 990 nm; and
Light power: 10 mW to 800 mW.
The following compound (73) was dissolved in tetrahydrofuran, and the resultant solution was measured for its two-photon absorption cross-sectional area according to the below-described evaluation method therefor.
The following compound (74) was dissolved in tetrahydrofuran, and the resultant solution was measured for its two-photon absorption cross-sectional area according to the below-described evaluation method therefor.
[drawing 68] [Method for Measuring Two-Photon Absorption Cross-Sectional Area]
FIG. 8 schematically illustrates a system of the method.
Measuring light source: femtosecond titanium sapphire laser
Repetition frequency: 80 MHz
Measuring method: Z scan method
Inner diameter of cuvette: 10 mm
Light power for measurement: about 500 mW
Collection diameter: 40 μm to 50 μm
A quartz cell filled with each sample solution was placed in a light path through which a focused laser beam was passed. Then, the cell was moved along the light path for Z-scan measurement.
The sample solution was measured for its transmittance, and the thus-obtained value and the following theoretical equation (I) were used to determine a nonlinear absorption coefficient of the sample. T=[ln(1+I0L0β)]/I0L0β (I)
where T denotes a transmittance (%), I0 denotes an excited light density [GW/cm^2], L0 denotes a sample cell length [cm], and β denotes a nonlinear absorption coefficient [cm/GW].
The thus-determined nonlinear absorption coefficient and the following equation (ii) were used to calculate a two-photon absorption cross-sectional area σ. Note that the unit of σ is GM (1 GM=1×10^−50 cm^4·s·photon^−1). σ=1,000×hvβ/[…] (ii)
where h denotes the Planck's constant [J·s], v denotes a frequency of an incident laser beam [s^−1], NA denotes the Avogadoro's number, and C denotes a concentration of a solution [mol/L].

| Two-photon absorption cross-sectional area | SMILES |
| --- | --- |
| 980 GM | CC1=C(C)c2nc1c(-c1ccc(C#N)cc1)c1[nH]c(c(C)c1C)c(-c1ccc(/C=C/c3ccc(N(c4ccccc4)c4ccc(C)cc4)cc3)cc1)c1nc(c(-c3ccc(C#N)cc3)c3[nH]c(c(C)c3C)c2-c2ccc(/C=C/c3ccc(N(c4ccccc4)c4ccc(C)cc4)cc3)cc2)C(C)=C1C [(5)] |
| 1,030 GM | CN(C)c1ccc(/C=C/C2=c3ccc4[n]3[Zn][n]3c(ccc3C(c3ccccn3)=C3C=CC2=N3)C(c2ccc(/C=C/c3ccc(N(c5ccccc5)c5ccccc5)cc3)cc2)=C2C=CC(=N2)C=4c2ccccn2)cc1 [(13)] |
| 860 GM | CCCCCCc1ccc(N(c2ccc(-c3c4nc(c(-c5c(C)cc(C)cc5C)c5[nH]c(cc6nc(c(-c7c(C)cc(C)cc7C)c7[nH]c3c(CC)c7C)C(C)=C6CC)c(CC)c5C)C(C)=C4CC)cc2)c2ccc(-c3c4nc(c(-c5c(C)cc(C)cc5C)c5[nH]c(cc6nc(c(-c7c(C)cc(C)cc7C)c7[nH]c3c(CC)c7C)C(C)=C6CC)c(CC)c5C)C(C)=C4CC)cc2)cc1 [(25)] |
| 1,120 GM | CCCCCCc1ccc(N(c2ccc(C3=C4N=C(C(C)=C4CC)C(c4c(C)cc(C)cc4C)=c4c(C)c(CC)c5[n]4[Zn][n]4c(c(C)c(CC)c43)C(c3c(C)cc(C)cc3C)=C3N=C(C=5)C(CC)=C3C)cc2)c2ccc(C3=c4c(CC)c(C)c5[n]4[Zn][n]4c(c(CC)c(C)c4C(c4c(C)cc(C)cc4C)=C4N=C3C(CC)=C4C)C=C3N=C(C(C)=C3CC)C=5c3c(C)cc(C)cc3C)cc2)cc1 [(26)] |
| 810 GM | CCC1=C(CC)c2nc1c(Br)c1[nH]c(c(CC)c1CC)c(-c1ccc([N+](=O)[O-])cc1)c1nc(c(-c3ccc4c(c3)C(C)(C)c3cc(-c5c6nc(c(-c7ccc([N+](=O)[O-])cc7)c7[nH]c(c(Br)c8nc(c(-c9ccc([N+](=O)[O-])cc9)c9[nH]c5c(CC)c9CC)C(CC)=C8CC)c(CC)c7CC)C(CC)=C6CC)ccc3-4)c3[nH]c(c(CC)c3CC)c2-c2ccc([N+](=O)[O-])cc2)C(CC)=C1CC [(27)] |
| 890 GM | CCCCCCc1ccc(N(c2ccc(C3=C4C=CC(=N4)C(c4ccccc4C)=c4ccc5[n]4[Pd][n]4c3ccc4C(c3ccccc3C)=C3C=CC(=N3)C=5c3ccc(/C=C/c4ccc(N(c5ccccc5)c5ccccc5)cc4)cc3)cc2)c2ccc(C3=c4ccc5[n]4[Pd][n]4c(ccc4C(c4ccccc4C)=C4C=CC3=N4)C=C3C=CC(=N3)C=5c3ccccc3C)cc2)cc1 [(31)] |
| 900 GM | CCC1=C(C)C2=NC1=Cc1c(CC)c(C)c3[n]1[Ni][n]1c(c(C)c(CC)c1=C(c1ccc(N(c4ccccc4)c4ccc(C5=C6N=C(C(C)=C6CC)C(c6ccncc6)=c6c(C)c(CC)c7[n]6[Ni][n]6c(c(C)c(CC)c65)C(c5ccncc5)=C5N=C(C(CC)=C5C)C=7/C=C/c5ccc(N(c6ccccc6)c6ccccc6)cc5)cc4)cc1)C1=NC(=C3c3ccncc3)C(C)=C1CC)=C2c1ccncc1 [(32)] |
| 1,010 GM | CCCCC(CC)COc1ccc(N(c2ccc(C3=C4N=C(C(C)=C4CC)C(c4ccccc4C(=O)OC)=c4c(C)c(CC)c5[n]4[Zn][n]4c(c(C)c(CC)c43)C(c3ccccc3C(=O)OC)=C3N=C(C=5)C(CC)=C3C)cc2)c2ccc(C3=c4c(CC)c(C)c5[n]4[Zn][n]4c(c(CC)c(C)c4C(c4ccccc4C(=O)OC)=C4N=C3C(CC)=C4C)C=C3N=C(C(C)=C3CC)C=5c3ccccc3C(=O)OC)cc2)cc1 (centres unmarked) [(34)] |
| 890 GM | CCC1=C(C)c2nc1cc1[nH]c(c(C)c1CC)c(-c1ccccc1C(F)(F)F)c1nc(c(-c3ccc4c(c3)C(C)(C)c3cc(-c5c6nc(c(-c7ccccc7C(F)(F)F)c7[nH]c(cc8nc(c(-c9ccccc9C(F)(F)F)c9[nH]c5c(CC)c9C)C(C)=C8CC)c(CC)c7C)C(C)=C6CC)ccc3-4)c3[nH]c(c(C)c3CC)c2-c2ccccc2C(F)(F)F)C(CC)=C1C [(39)] |
| 1,000 GM | CC1=C(C)C2=C(I)c3c(C)c(C)c4[n]3[Zn][n]3c(cc(C)c3=C(c3ccccc3C(F)(F)F)C1=N2)=C(c1ccc2c(c1)C(C)(C)c1cc(C3=C5N=C(C(C)=C5C)C(c5ccccc5C(F)(F)F)=c5c(C)c(C)c6[n]5[Zn][n]5c3c(C)c(C)c5C(c3ccccc3C(F)(F)F)=C3N=C(C(C)=C3C)C=6I)ccc1-2)C1=NC(=C4c2ccccc2C(F)(F)F)C(C)=C1C [(44)] |
| 1,200 GM | CCCCCCC1(CCCCCC)c2cc(C3=C4C=CC(=N4)C(c4cc(OC)c(OC)c(OC)c4)=c4ccc5[n]4[Zn][n]4c(ccc43)C(c3cc(OC)c(OC)c(OC)c3)=C3C=CC(=N3)C=5/C=C/c3ccc(N(c4ccccc4)c4ccccc4)cc3)ccc2-c2ccc(C3=c4ccc5[n]4[Zn][n]4c(ccc4C(c4cc(OC)c(OC)c(OC)c4)=C4C=CC3=N4)C=C3C=CC(=N3)C=5c3cc(OC)c(OC)c(OC)c3)cc21 [(45)] |
| 840 GM | CCC1=C(C)c2nc1c(Br)c1[nH]c(c(C)c1CC)c(Br)c1nc(c(-c3ccc(N(c4ccccc4)c4ccc(-c5c6nc(c(-c7ccccc7C(F)(F)F)c7[nH]c(c(Br)c8nc(c(Br)c9[nH]c5c(CC)c9C)C(C)=C8CC)c(CC)c7C)C(C)=C6CC)cc4)cc3)c3[nH]c(c(C)c3CC)c2-c2ccccc2C(F)(F)F)C(CC)=C1C [(53)] |
| 850 GM | CCC1=C(C)c2cc3[nH]c(c(CC)c3C)c(-c3ccc(N(c4ccccc4)c4ccc(-c5c6nc(cc7[nH]c(cc8nc(c(-c9ccc(-c%10ccccn%10)nc9)c9[nH]c5c(CC)c9C)C(C)=C8CC)c(CC)c7C)C(C)=C6CC)cc4)cc3)c3nc(c(-c4ccc(-c5ccccn5)nc4)c4[nH]c(cc1n2)c(CC)c4C)C(C)=C3CC [(55)] |
| 840 GM | CCC1=C(C)C2=C(c3cc(OC)c(OC)c(OC)c3)c3c(C)c(CC)c4[n]3[Cu][n]3c(c(C)c(CC)c3=C(c3ccc(/C=C/c5ccc(N(c6ccc(C)cc6)c6ccc(C)cc6)cc5)cc3)C1=N2)=C(c1cc(OC)c(OC)c(OC)c1)C1=NC(=C4c2ccc(/C=C/c3ccc(N(c4ccc(C)cc4)c4ccc(C)cc4)cc3)cc2)C(CC)=C1C [(62)] |
| 900 GM | CCCCCCc1ccc(N(c2ccc(C3=C4N=C(C(C)=C4CC)C(c4c(C)cc(C)cc4C)=c4c(C)c(CC)c5[n]4[Ni][n]4c(c(C)c(CC)c43)C(c3c(C)cc(C)cc3C)=C3N=C(C=5)C(CC)=C3C)cc2)c2ccc(C3=c4c(CC)c(C)c5[n]4[Ni][n]4c(c(CC)c(C)c4C(c4c(C)cc(C)cc4C)=C4N=C3C(CC)=C4C)C=C3N=C(C(C)=C3CC)C=5c3c(C)cc(C)cc3C)cc2)cc1 [(63)] |
| 890 GM | CCCCCCc1ccc(N(c2ccc(C3=C4N=C(C(C)=C4CC)C(c4c(C)cc(C)cc4C)=c4c(C)c(CC)c5[n]4[Pd][n]4c(c(C)c(CC)c43)C(c3c(C)cc(C)cc3C)=C3N=C(C=5)C(CC)=C3C)cc2)c2ccc(C3=c4c(CC)c(C)c5[n]4[Pd][n]4c(c(CC)c(C)c4C(c4c(C)cc(C)cc4C)=C4N=C3C(CC)=C4C)C=C3N=C(C(C)=C3CC)C=5c3c(C)cc(C)cc3C)cc2)cc1 [(64)] |

| SMILES | Two-photon absorption cross-sectional area |
| --- | --- |
| CCCCCCc1ccc(N(c2ccc(C3=C4C(C(=O)OC)=CC5=[N+]4[Co@]46[n]7c(cc(C(=O)OC)c73)C(c3ccc([N+](=O)[O-])cc3)=C3C=C(C(=O)OC)C(=[N+]34)C=c3c(C(=O)OC)cc([n]36)=C5c3ccc([N+](=O)[O-])cc3)cc2)c2ccc(C3=c4c(C(=O)OC)cc5[n]4[Co@]46[n]7c(cc(C(=O)OC)c7C=C7C(C(=O)OC)=CC(=[N+]74)C=5c4ccc([N+](=O)[O-])cc4)C(c4ccc([N+](=O)[O-])cc4)=C4C=C(C(=O)OC)C3=[N+]46)cc2)cc1 [(36)] | 860 GM |
